Columns and labels:
[1] = Animal death during the hyperoxia experiment; format: in vivo, mouse; conditions: neonatal mice, i.p. every day P5 to P8, entire experiment
Protocol: Pregnant C57/BL6 wild-type mice (National Experimental Animal Center, Pocheon, Korea) were raised in individual cages by offering a free access to water and food to each mouse, the mice spontaneously gave birth to babies, and then the offsprings were grown in a chamber under hyperoxia (80% O2) conditions (P) or normal oxygen (21% O2) conditions by day 14. At this time, environmental humidity and temperature were maintained at 50% and 24° C., and to investigate the effect of activated FPR2, WKYMVm (SEQ ID NO: 1) or physiological saline (vehicle, 20 μl) was intraperitoneally administered to each mouse every day from P5 to P8. In this case, death of the animals was not observed throughout the entire experimental processes.

[2] = test system: bronchopulmonary dysplasia in neonatal mice; conditions: Martin et al. 2014; cited from earlier work

SMILES	death of the animals [1]	alveolar damage caused by bronchopulmonary dysplasia [2]
CSCC[C@H](NC(=O)[C@H](Cc1ccc(O)cc1)NC(=O)[C@H](CCCCN)NC(=O)[C@@H](N)Cc1c[nH]c2ccccc12)C(=O)N[C@H](C(=O)N[C@H](CCSC)C(=O)O)C(C)C [WKYMVm, Trp-Lys-Tyr-Met-Val-D-Met]	not observed	
CCCCC[C@H](O)/C=C/C=C\C=C\C=C\[C@@H](O)[C@@H](O)CCCC(=O)O [lipoxin A4]		improve alveolar damage
CC/C=C\C[C@H](O)/C=C/C=C\C=C\C=C\[C@@H](O)[C@@H](O)C/C=C\CCC(=O)O [resolvin D1]		improve alveolar damage

Reference: patent publication US20190192613A1, “COMPOSITION FOR PREVENTING OR TREATING HYPEROXIA-INDUCED LUNG INJURY COMPRISING WKYMVM PEPTIDE AS AN ACTIVE INGREDIENT” (SAMSUNG LIFE PUBLIC WELFARE FOUNDATION, priority 2017, published 2019)
